From patent US20050049186A1, “Peptides mimicking the biological activity of steroid hormones and their uses” (priority 2000, published 2005)
Where two headings read alike, the source gives them in different places. Peptide text beside a SMILES is read from it.

What was measured:
ER β = ER β (Homo sapiens, UniProt Q92731); experiment: Receptor binding assay for estrogen receptor beta; conditions: for IC50 / IC50 to ERβ: Table 5; for IC50: read-out: IC50 to ERβ; for recognition of / binding activity to estrogen receptor β: summary of Tables 3 to 5
ER α = molecular target: T1, ER α (Homo sapiens, UniProt P03372); experiment: Receptor binding assay for estrogen receptor alpha; conditions: for recognition of / binding activity to estrogen receptor α: summary of Tables 3 to 5
T1 sequence (P03372 1-595): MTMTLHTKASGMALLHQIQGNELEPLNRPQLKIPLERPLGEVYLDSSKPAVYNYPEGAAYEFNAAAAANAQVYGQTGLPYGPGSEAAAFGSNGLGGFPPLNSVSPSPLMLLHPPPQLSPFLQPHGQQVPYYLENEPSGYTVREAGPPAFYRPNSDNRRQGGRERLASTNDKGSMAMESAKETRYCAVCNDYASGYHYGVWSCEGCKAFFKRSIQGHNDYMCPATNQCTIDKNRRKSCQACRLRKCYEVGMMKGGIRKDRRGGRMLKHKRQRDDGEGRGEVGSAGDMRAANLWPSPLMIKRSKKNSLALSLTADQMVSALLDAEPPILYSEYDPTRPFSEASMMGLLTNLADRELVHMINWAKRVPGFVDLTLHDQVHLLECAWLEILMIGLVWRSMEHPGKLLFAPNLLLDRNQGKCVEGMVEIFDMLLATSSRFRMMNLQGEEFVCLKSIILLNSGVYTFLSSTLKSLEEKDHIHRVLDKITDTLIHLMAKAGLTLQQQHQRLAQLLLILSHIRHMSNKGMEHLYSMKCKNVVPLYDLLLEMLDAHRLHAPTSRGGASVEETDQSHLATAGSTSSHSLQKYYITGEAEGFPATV

[1] = molecular target: anti-estradiol mAb clone 15; experiment: Competitive immunoassay: inhibition of binding of labeled E2 (estradiol ovalbumin europium conjugate) to anti-E2 clone 15; parameters: species or system mouse; conditions: for IC50: Table 5, estradiol ovalbumin europium conjugate; for inhibition of the binding of estradiol ovalbumin europium conjugate to anti-E2 mAb clone 15 relative to peptides 1 and 2: compared with the linear or cyclic peptides 1 and 2; for inhibition of binding of estradiol ovalbumin europium conjugate to anti-estradiol mAb clone 15: text summary of Table 4
Source text: […]. The linear peptide 1 is 15-amino acid long. We further explored the possibility whether smaller peptides derived from peptide 1 may have antibody binding activity and receptor binding activity. In order to find out the minimum amino acid sequence required in the linear peptide 1 for antibody and receptor binding, several peptides with varying length of from 4 to 14 amino acids long were synthesized, and were first evaluated in terms of binding to anti-estradiol (E2) mAb clone 15. The peptides showing similar or better antibody binding activity than the linear peptide 1 were further evaluated in terms of binding to ERα and β.

[2] = Table 5, read-out: IC50 to ER α

Chain of ER β (Q92731 whole entry, species assumed): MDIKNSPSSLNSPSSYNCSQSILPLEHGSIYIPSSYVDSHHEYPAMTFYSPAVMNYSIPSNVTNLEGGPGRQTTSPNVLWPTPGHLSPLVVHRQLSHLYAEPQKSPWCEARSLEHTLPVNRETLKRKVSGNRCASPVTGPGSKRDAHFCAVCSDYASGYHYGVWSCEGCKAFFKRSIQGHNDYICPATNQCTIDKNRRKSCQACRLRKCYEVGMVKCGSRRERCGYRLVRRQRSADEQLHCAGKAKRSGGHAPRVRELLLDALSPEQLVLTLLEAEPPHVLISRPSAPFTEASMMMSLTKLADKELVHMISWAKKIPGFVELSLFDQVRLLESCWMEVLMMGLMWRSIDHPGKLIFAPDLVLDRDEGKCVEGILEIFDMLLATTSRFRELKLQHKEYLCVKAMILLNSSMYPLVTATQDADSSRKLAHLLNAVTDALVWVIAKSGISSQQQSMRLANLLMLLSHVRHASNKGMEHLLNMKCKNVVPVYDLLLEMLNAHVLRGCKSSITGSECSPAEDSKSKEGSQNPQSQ

Compound	IC50 (ER β) [µM]	recognition of / binding activity to estrogen receptor β (ER β)	IC50 to ER α (ER α; Table 5)	IC50 [1] [µM]	inhibition of the binding of estradiol ovalbumin europium conjugate to anti-E2 mAb clone 15 relative to peptides 1 and 2 [1]	IC50 to ERβ (ER β)	recognition of / binding activity to estrogen receptor α (ER α)	IC50 (ER α; [2]) [µM]	IC50 (ER α; FIG. 2, read-out: IC50, binding to ER α) [µM]	inhibition of binding of estradiol ovalbumin europium conjugate to anti-estradiol mAb clone 15 [1]
N=C(N)NCCC[C@H](NC(=O)[C@@H](N)CCCCN)C(=O)N[C@@H](Cc1c[nH]c2ccccc12)C(=O)N[C@@H](Cc1ccccc1)C(=O)N[C@@H](Cc1ccccc1)C(=O)N[C@@H](CCC(=O)O)C(=O)O [Peptide 44, KRWFFE] (H-KRWFFE-OH)	400	recognized	–	0.035	one and half order of magnitude better	–	recognized	400	–	–
C[C@H](N)C(=O)N[C@@H](CCCNC(=N)N)C(=O)N[C@@H](Cc1c[nH]c2ccccc12)C(=O)N[C@@H](Cc1ccccc1)C(=O)N[C@@H](Cc1ccccc1)C(=O)N[C@@H](CCC(=O)O)C(=O)O [Peptide A-43, ARWFFE] (H-ARWFFE-OH)	–	not β	–	0.04	one and half order of magnitude better	None	recognized only the estrogen receptor α	–	–	showed inhibition
NCCCC[C@H](N)C(=O)N1CCC[C@H]1C(=O)N[C@@H](Cc1c[nH]c2ccccc12)C(=O)N[C@@H](Cc1ccccc1)C(=O)N[C@@H](Cc1ccccc1)C(=O)N[C@@H](CCC(=O)O)C(=O)O [Peptide 21, KPWFFE] (H-KPWFFE-OH)	> 500	recognized	–	0.045	one and half order of magnitude better	–	recognized	–	–	–
WFFE [Peptide 46]	–	–	–	–	–	–	did not show any inhibition	–	–	–
CC(C)[C@H](N)C(=O)N[C@@H](CCCNC(=N)N)C(=O)N[C@@H](Cc1c[nH]c2ccccc12)C(=O)N[C@@H](Cc1ccccc1)C(=O)N[C@@H](Cc1ccccc1)C(=O)N[C@@H](CCC(=O)O)C(=O)O [Peptide 39, VRWFFE] (H-VRWFFE-OH)	< 100	–	–	–	–	–	–	< 100	–	–
NCCCC[C@H](N)C(=O)N[C@@H](CO)C(=O)N[C@@H](Cc1c[nH]c2ccccc12)C(=O)N[C@@H](Cc1ccccc1)C(=O)N[C@@H](Cc1ccccc1)C(=O)N[C@@H](CCC(=O)O)C(=O)O [Peptide 19, KSWFFE] (H-KSWFFE-OH; N-terminus and C-terminus assumed)	–	did not show any binding activity	None	0.04	one and half order of magnitude better	None	did not show any binding activity	–	–	–
C[C@H](NC(=O)[C@@H](N)CCCCN)C(=O)N[C@@H](Cc1c[nH]c2ccccc12)C(=O)N[C@@H](Cc1ccccc1)C(=O)N[C@@H](Cc1ccccc1)C(=O)N[C@@H](CCC(=O)O)C(=O)O [Peptide A-44, KAWFFE] (H-KAWFFE-OH)	250	recognized	–	0.04	one and half order of magnitude better	–	recognized	250	–	showed inhibition
CC(C)C[C@@H]1NC(=O)[C@H](C)NC(=O)[C@@H]2CCCN2C(=O)[C@H](CC(C)C)NC(=O)[C@H](CCC(=O)O)NC(=O)[C@H](C)NC(=O)[C@@H](N)CSSC[C@@H](C(=O)O)NC(=O)[C@@H]2CCCN2C(=O)[C@@H]2CCCN2C(=O)[C@@H]2CCCN2C(=O)[C@@H]2CCCN2C(=O)[C@H](CCCCN)NC(=O)[C@H]([C@@H](C)O)NC(=O)[C@H](CCC(=O)O)NC(=O)[C@H](Cc2ccccc2)NC(=O)[C@H](Cc2ccccc2)NC(=O)[C@H](Cc2c[nH]c3ccccc23)NC(=O)[C@H](CCCNC(=N)N)NC(=O)[C@H](CCCCN)NC(=O)[C@H]([C@@H](C)O)NC(=O)[C@@H]2CCCN2C(=O)[C@H](CC(=O)O)NC1=O [Peptide 2] (HELM PEPTIDE1{C.A.E.L.P.A.L.D.P.T.K.R.W.F.F.E.T.K.P.P.P.P.C}$PEPTIDE1,PEPTIDE1,1:R3-23:R3$$$V2.0; N-terminus and C-terminus assumed)	–	–	–	–	–	none	–	–	100	–

Second part, led by results:

IC50 (ER β) [µM]	recognition of / binding activity to estrogen receptor β (ER β)	IC50 to ER α (ER α; Table 5)	IC50 [1] [µM]	inhibition of the binding of estradiol ovalbumin europium conjugate to anti-E2 mAb clone 15 relative to peptides 1 and 2 [1]	IC50 to ERβ (ER β)	recognition of / binding activity to estrogen receptor α (ER α)	IC50 (ER α; [2]) [µM]	IC50 (ER α; FIG. 2, read-out: IC50, binding to ER α) [µM]	Compound	inhibition of binding of estradiol ovalbumin europium conjugate to anti-estradiol mAb clone 15 [1]
250	recognized only the ERβ	None	0.02	one and half order of magnitude better	–	–	–	–	CC[C@H](C)[C@H](N)C(=O)N[C@@H](CCCNC(=N)N)C(=O)N[C@@H](Cc1c[nH]c2ccccc12)C(=O)N[C@@H](Cc1ccccc1)C(=O)N[C@@H](Cc1ccccc1)C(=O)N[C@@H](CCC(=O)O)C(=O)O [Peptide B37, IRWFFE] (H-IRWFFE-OH)	–
–	did not show any binding activity	None	0.006	one and half order of magnitude better	None	did not show any binding activity	–	–	CC(C)[C@H](N)C(=O)N1CCC[C@H]1C(=O)N[C@@H](Cc1c[nH]c2ccccc12)C(=O)N[C@@H](Cc1ccccc1)C(=O)N[C@@H](Cc1ccccc1)C(=O)N[C@@H](CCC(=O)O)C(=O)O [Peptide B33, VPWFFE] (H-VPWFFE-OH; N-terminus and C-terminus assumed)	–
–	did not show any binding activity	None	0.04	one and half order of magnitude better	None	did not show any binding activity	–	–	CC(C)C[C@H](N)C(=O)N[C@@H](CCCNC(=N)N)C(=O)N[C@@H](Cc1c[nH]c2ccccc12)C(=O)N[C@@H](Cc1ccccc1)C(=O)N[C@@H](Cc1ccccc1)C(=O)N[C@@H](CCC(=O)O)C(=O)O [Peptide B38, LRWFFE] (H-LRWFFE-OH; N-terminus and C-terminus assumed)	–
–	did not show any binding activity	None	0.006	one and half order of magnitude better	None	did not show any binding activity	–	–	CC(C)[C@H](N)C(=O)N[C@@H](CCCNC(=N)N)C(=O)N[C@@H](Cc1c[nH]c2ccccc12)C(=O)N[C@@H](Cc1ccccc1)C(=O)N[C@@H](Cc1ccc(O)cc1)C(=O)N[C@@H](CCC(=O)O)C(=O)O [Peptide B35, VRWFYE] (H-VRWFYE-OH; N-terminus and C-terminus assumed)	–
100	recognized	–	0.006	one and half order of magnitude better	–	recognized	250	–	CC(C)[C@H](N)C(=O)N[C@@H](CO)C(=O)N[C@@H](Cc1c[nH]c2ccccc12)C(=O)N[C@@H](Cc1ccccc1)C(=O)N[C@@H](Cc1ccccc1)C(=O)N[C@@H](CCC(=O)O)C(=O)O [Peptide B34, VSWFFE] (H-VSWFFE-OH)	–
